# Values of other authors as cited in patent US12246054B2, “Method of treating diseases” (Amryt Endo, Inc., priority 2015, dated 2025).
# Tests used:
# [1] = in vivo
# [2] = test system: idiopathic intracranial hypertension; conditions: IIH patients; injections
smiles,measurement,setting,value
C[C@@H](O)[C@@H]1NC(=O)[C@H](CCCCN)NC(=O)[C@@H](Cc2c[nH]c3ccccc23)NC(=O)[C@H](Cc2ccccc2)NC(=O)[C@@H](NC(=O)[C@H](N)Cc2ccccc2)CSSC[C@@H](C(=O)N[C@H](CO)[C@@H](C)O)NC1=O [octreotide],acute rebound GH hypersecretion,[1],absence of acute rebound GH hypersecretion
same,circulating half-life,[1],2 h
same,Patients in whom headache and papilledema subsided and visual disturbances improved (response rate),[2],about 90%
